A short description of this series: Pharmacokinetic study of nanoparticle suspension NS-I-4 in ICR mice. The series is classed as in vivo. Conditions: for MRT last: read-out: MRT(0-t); for MRT inf: read-out: MRT(0-∞); for Vd: read-out: Vz. As to the method:
Nanoparticle suspension NS-I-4, prepared according to the method as described in example 5, was administered intravenously into ICR mice at a dosage of 30 mg/kg. At different time points (5 min, 10 min, 30 min, 1 h, 2 h, 3 h, 4 h, 6 h) after the drug injection, blood samples were withdrawn from the dosed mice, and then were centrifuged at 6,000 rpm for 10 minutes at 4° C. The supernatant plasma samples were fetched and treated with 9 times volume of acetonitrile containing 0.5% trifluoromethane sulfonic acid. The treated plasmas were centrifuged at 12,000 rpm for 15 minutes at 4° C., and then the supernatants were fetched and analyzed with HPLC.
During treatment of blood samples before HPLC analysis, active drug 2-acetyl-4,9-dihydroxy-naphtho[2,3-b]furan and active metabolite 2-(1-hydroxyl)ethyl-4,9-dihydroxy-naphtho[2,3-b]furan are both oxidized into 2-acetyl-naphtho[2,3-b]furan-4,9-dione and 2-(1-hydroxyl)ethyl-naphtho[2,3-b]furan-4,9-dione, respectively (see scheme 1).
Scheme 1: Compound I is degraded by esterases into active drug, which is further metabolized into active metabolite. During pre-treatment for HPLC analysis, active drug and metabolite are oxidized by oxygen from air to oxidized drug and oxidized metabolite, respectively.
The Waters HPLC system used in this study includes: 1525 dual pump, 2998 photodiode array detector, 2707 auto sampler, Breeze 2 control and analysis software. The HPLC column used in this study: Phenomenex Luna C18, 250×4.60 mm 5 micron. The HPLC mobile phase: buffer A, 80% water, 20% acetonitrile; buffer B, 10% water, 70% acetonitrile, 20% tetrahydrofuran. The HPLC mobile phase gradient: 0-3 min, 50% buffer B to 50% buffer B, 3-10 min, 50% buffer B to 100% buffer B, 10-20 min, 100% buffer B to 100% buffer B, 20-22 min, 100% buffer B−50% buffer B, 22-25 min, 50% buffer B to 50% buffer B; flow rate, 1 ml/min.
Time courses of compound I, oxidized drug and oxidized active metabolite are illustrated in FIG. 2.

Setting [1] is: analyte in mouse plasma after NS-I-4 intravenously 30 mg/kg, ICR mice.
Where [2] appears, read: iv, analyte in mouse plasma after NS-I-4 intravenously 30 mg/kg, ICR mice.
Where [3] appears, read: iv, analyte in mouse plasma after NS-I-4 intravenously 30 mg/kg, ICR mice, read-out: AUC(0-t).
The mark [4] stands for this setting: iv, analyte in mouse plasma after NS-I-4 intravenously 30 mg/kg, ICR mice, read-out: Cmax.
Where [5] appears, read: iv, analyte in mouse plasma after NS-I-4 intravenously 30 mg/kg, ICR mice, read-out: Tmax.

Where two headings read alike, the source gives them in different places.

As for `CC(O)c1cc2c(o1)C(=O)c1ccccc1C2=O` (stereo not shown) [2-(1-hydroxy)ethyl-naphtho[2,3-b]furan-4,9-dione], under setting [1], the “AUC(0-t)” value was found to be 3801 ng·h/mL, the “AUC(0-∞)” value turned out to be 3999 ng·h/mL, the CLz turned out to be 250.07 mL/min/kg and the Cmax was found to be 1695 ng/mL. For the same compound, under setting [1], the “MRT(0-t)” value was 86.28 min, the “MRT(0-∞)” value is 97.68 min, the time to peak (Tmax) amounted to 30 min and the volume of distribution (Vz) worked out at 19.051 L/kg. Besides, under setting [1], the t1/2z was 52.8 min.

On to `CC(=O)c1cc2c(o1)C(=O)c1ccccc1C2=O` [2-acetyl-naphtho[2,3-b]furan-4,9-dione], for which, under setting [1], the CLz worked out at 58.62 mL/min/kg and the t1/2z is 184.4 min. Under setting [2], the area under the curve AUC(0-inf) came out at 8530 ng·h/mL, the MRT last amounted to 74.9 min, the MRT inf was found to be 147 min and the Vd was found to be 15.6 L/kg. In addition, under setting [3], the AUC(0-t) worked out at 7420 ng·h/mL. Further, the maximum concentration (Cmax) under setting [4] worked out at 6130 ng/mL. Further, under setting [5], the Tmax was found to be 10 min.

Turning to `CCCCCCCC(=O)Oc1c2ccccc2c(OC(=O)CCCCCCC)c2oc(C(C)=O)cc12` [Compound I, 2-acetyl-4,9-bis(octanoyloxy)-naphtho[2,3-b]furan], the metabolic fate entry (administered intravenously into ICR mice) is “degraded by esterases into active drug 2-acetyl-4,9-dihydroxy-naphtho[2,3-b]furan”. Under setting [1], this compound had a CLz of 1.97 mL/min/kg and a t1/2z of 23.8 min. Also, under setting [2], the AUC(0-inf) is 255000 ng·h/mL, the MRT last worked out at 37.7 min, the MRT inf was determined as 37.7 min and the Vd is 0.067 L/kg. Moreover, under setting [3], the AUC(0-t) stood at 255000 ng·h/mL. Moreover, the Cmax under setting [4] amounted to 288000 ng/mL. Moreover, the time to peak (Tmax) under setting [5] is 10 min.

The values are drawn from patent US20150164794A1, “METHOD FOR PREPARING AQUEOUS NANOPARTICLE SUSPENSIONS OF DERIVATIVES OF 4,9-DIHYDROXY-NAPHTHO[2,3-b]FURAN ALIPHATIC ACID ESTERS” (Zhoushan Haizhongzhou Xinsheng Pharmaceuticals, Co., Ltd., priority 2012, published 2015).
